# According to patent publication US20160039852A1, “THERAPEUTIC USES OF BISPHOSPHONATES” (THE UNIVERSITY OF SHEFFIELD, priority 2013, published 2016):
# Entries after “also recorded” stand apart in the source; their conditions may differ.
# Experiments:
# [1] = system: murine and human cancer lines (PC3, 178-2 BMA, MDA-MB231, 5TGM1, 5T33); assay: γH2AX foci in cancer lines following irradiation; assay type: cell-based; conditions: irradiation (1Gy), Zol, 0, 4, 12, 24 and 48 h post irradiation
# Experimental: (C-H) Number of γH2AX foci enumerated in (C) hMSC, (D) PC3, (E) 178-2 BMA, (F) MDA-MB231,
# (G) 5TGM1 and (H) 5T33 lines following irradiation (1Gy) in the presence or absence of Zol ([…]) and assessed at 0, 4, 12, 24 and 48 h post irradiation (n=3).
# Human prostate cancer cell line PC3 cells were maintained in DMEM with Glutamax (Gibco) containing 10% FBS (Sigma), 1% penicillin (100units/ml)/streptomycin (100 μg/ml) (Sigma). Mouse prostate cancer cell line 178-2 BMA was cultured as described above with the addition of 0.1 mM 4-(2-hydroxyethyl)-1-piperazineethanesulfonic acid (Life Technologies, Gaithersburg, USA) and 0.01 mM sodium pyruvate (PAA Laboratories). Human breast cancer cell line MDA-MB-231 was cultured in RPMI 1640 with Glutamax supplemented with 10% FBS (Sigma), 0.01 mM sodium pyruvate (PAA laboratories) and penicillin (1 units/ml) and streptomycin (1 μg/ml) (Sigma). […]
# DNA damage was induced by exposing hMSC to ^137Cs Gamma source. […] Five to seven fields consisting of 25 cells in total were randomly selected from a tile scan (20×) and individual cells viewed at 63× were then scored for γH2AX DNA damage foci using ImageJ 1.45 software (http://rsbweb.nih.gov/ij/).
# unprenylated RAP1A = assay: Western blot of unprenylated RAP1A in cancer lines; assay type: cell-based, human and murine; conditions: Zol (1 μM) for 72 h
# Experimental: (A) A representative example of western blot analysis of human mesenchymal stem cells (MSC) and human and murine prostate cancer cell lines (human: PC3, murine 178-2 BMA), human breast cancer cell line (MDA-MB231), murine multiple myeloma cancer lines (5TGM1 and 5T33) cultured in presence or absence of Zol (1 μM) for 72 h and assessed for the expression of unprenylated RAP1A and GAPDH.
# Protein lysates (50 μg) were diluted in equal volume of 2× Laemmli buffer (Gibco) containing Dithiothreitol (DTT, Sigma,UK). The samples were heated at 95° C. for 5 minutes and loaded on a 12% Tris-glycine gel. After electro-blotting, membranes were blocked with 5% Bovine serum albumin (BSA) in 0.1% Tween 20 in PBS (PBS-T) for detection of glyceraldehyde-3-phosphate dehydrogenase (GAPDH) and 5% dry milk in PBS-T for detection of unprenylated RAP1A (Santacruz Biotechnology, Santa Cruz, USA). In case of P-AKT, P-70S6K membranes were blocked with 5%BSA in 1× tris buffered saline and 0.1% tween-20 (TBS-T), where for AKT and P70S6K membranes were blocked with 5% dry milk in TBS-T. All membranes were blocked for 2 hours at room temperature. […] Detection was carried out using enhanced chemi-luminescence plus ECL reaction kit (GE Healthcare, Buckinghamshire, UK) and quantification of protein expression was carried out using image J software.
# [2] = system: human mesenchymal stem cells (hMSC); assay: hMSC growth kinetics, cumulative population doublings with time in culture; assay type: cell-based
# [3] = system: 5T33 Multiple Myeloma line; assay: γH2AX DNA damage foci in 5T33 multiple myeloma line after irradiation; assay type: cell-based, murine; conditions: 1 μM Zol for 3 days prior to 1Gy, γH2AX 4 h later
# Experimental: 5T33MM were exposed to 1 μM Zol for 3 days prior to irradiation at 1Gy and assessment of γH2AX 4 h later (Zol). UI, are hMSC non irradiated, PBS, are hMSC irradiated in absence of Zol. Data are expressed as mean±SEM and were analysed by one way ANOVA and Bonferroni post-test for multiple comparison *p<0.05, **p<0.01, ***p<0.001
# DNA damage was induced by exposing hMSC to ^137Cs Gamma source. Cells were washed with PBS and fixed with 4% Para-formaldehyde for 15mins. Cells were then washed with PBS permeabilized with 0.5% Triton-X (Sigma, UK) for 2mins and blocked with 5% normal goat serum (DAKO, Glostrup, Denmark) in PBS for 1 hr. This was followed by incubation with primary antibody, anti-phospho histone H2AX (Ser139) (Millipore, Massachusetts, USA) used at 1:800 in 5% normal goat serum, overnight at 4° C. Cells were then washed in PBS and incubated in secondary Anti mouse IgG Fluorescein Isothiocyanate (FITC) conjugated (Insight Biotechnology, Santa Cruz, USA) at 1:200 in PBS for 1 hour at room temperature. The cover-slips were mounted on slides with mounting media (VectaShield) containing 4′,6-diamidino-2-phenylindole (DAPI) to stain the nuclei. […] Five to seven fields consisting of 25 cells in total were randomly selected from a tile scan (20×) and individual cells viewed at 63× were then scored for γH2AX DNA damage foci using ImageJ 1.45 software (http://rsbweb.nih.gov/ij/).
# [4] = system: zebrafish embryo caudal fin; assay: Zebrafish tail amputation and regeneration following irradiation; assay type: in vivo, Zebrafish (Danio Rerio H)
# Experimental: Embryos from wild-type Zebrafish (Danio Rerio H) AB strain were collected at 16 cell stage (˜1.5 hours post fertilisation (hpf)) and grown in E3 Medium at 28° C. Embryos were treated with Zoledronate (1 μM) and/or FOH, GGOH at 24 hpf. DNA damage was induced by exposure to ^137Cs Gamma source at 48 hpf and after irradiation the embryo tails were amputated and the embryos were then incubated at 28° C. for a further 12 hrs in the presence of the chemicals. At the end of this period the chemicals were washed off and the embryos were incubated in fresh medium with no chemicals. The embryos were grown up to 120 hpf, following which they were fixed in 4% PFA overnight and then mounted in 100% glycerol. The tail lengths of embryos were measured taking the anal region as starting reference point and the end of the fin fold as the ending point of measurement.
structure (smiles),measurement,setting,value
O=P(O)(O)C(O)(Cn1ccnc1)P(=O)(O)O [Zoledronate],DNA repair capacity (γH2AX foci),[1],does not enhance the DNA repair capacity
same,mevalonate pathway (unprenylated RAP1A),unprenylated RAP1A,inhibition of mevalonate pathway
same,population doublings after which cultures were still proliferating,"[2]; hMSC grown in presence of Zol (1 μM), PBS cultures senesced after 21-27 PDs, n=3",29-36 PDs
same,ability of hMSC to proliferate and differentiate following irradiation,"[2]; irradiated at 3 Gy, Zol for 3 days, washed off 12 h later",rescues hMSCs ability to proliferate and differentiate
same,hMSC life span / time of proliferation in culture,"[2]; versus PBS control, listed as Zol",extension of life span; also recorded: proliferated for a longer time than control cells
same,DNA repair capacity (γH2AX foci),[3],does not enhance the DNA repair capacity
same,regeneration of the caudal fin at 120 hpf,"[4]; 1Gy irradiation, Zol 1 μM, FIG. 6",enhances tail regeneration
same,regeneration of the caudal fin at 120 hpf,[4]; 1 and 3 Gy irradiation (data not shown),same outcome
same,regeneration of the caudal fin at 120 hpf,"[4]; 5 Gy irradiation, Zol 1 μM, n=15/group",enhances tail regeneration
same,regeneration of the caudal fin at 120 hpf,"[4]; 5 Gy irradiation, Zol 1 μM, n=15/group, listed as Zol",rescued
